Experimental data as given in the NIST ThermoML archive (doi:10.1016/j.fluid.2016.03.016).
Numbers after ± are expanded uncertainties.

Assay: mn = molality of the nth substance listed, in mol/kg
Settings: 100 kPa, Liquid, Vibrating tube method

O=C[C@H](O)[C@@H](O)[C@H](O)[C@H](O)CO [D-glucose] + O
mass density (288.15 K, m1 = 0.04761): 1002.39 ± 0.041 kg/m3
mass density (288.15 K, m1 = 0.08797): 1005.11 ± 0.043 kg/m3
mass density (288.15 K, m1 = 0.09893): 1005.85 ± 0.044 kg/m3
mass density (288.15 K, m1 = 0.1555): 1009.58 ± 0.047 kg/m3
mass density (288.15 K, m1 = 0.1767): 1010.96 ± 0.048 kg/m3
mass density (288.15 K, m1 = 0.2008): 1012.51 ± 0.05 kg/m3
mass density (298.15 K, m1 = 0.04761): 1000.27 ± 0.04 kg/m3
mass density (298.15 K, m1 = 0.08797): 1002.97 ± 0.043 kg/m3
mass density (298.15 K, m1 = 0.09893): 1003.7 ± 0.043 kg/m3
mass density (298.15 K, m1 = 0.1276): 1005.58 ± 0.045 kg/m3
mass density (298.15 K, m1 = 0.2008): 1010.31 ± 0.049 kg/m3
mass density (308.15 K, m1 = 0.04761): 997.256 ± 0.042 kg/m3
mass density (308.15 K, m1 = 0.08797): 999.92 ± 0.042 kg/m3
mass density (308.15 K, m1 = 0.09893): 1000.64 ± 0.042 kg/m3
mass density (308.15 K, m1 = 0.1276): 1002.5 ± 0.044 kg/m3
mass density (308.15 K, m1 = 0.1555): 1004.29 ± 0.045 kg/m3
mass density (308.15 K, m1 = 0.1767): 1005.64 ± 0.047 kg/m3
mass density (318.15 K, m1 = 0.04761): 993.41 ± 0.043 kg/m3
mass density (318.15 K, m1 = 0.08797): 996.056 ± 0.043 kg/m3
mass density (318.15 K, m1 = 0.09893): 996.767 ± 0.043 kg/m3
mass density (318.15 K, m1 = 0.1276): 998.624 ± 0.043 kg/m3
mass density (318.15 K, m1 = 0.1555): 1000.4 ± 0.044 kg/m3
mass density (318.15 K, m1 = 0.1767): 1001.75 ± 0.045 kg/m3
mass density (318.15 K, m1 = 0.2008): 1003.26 ± 0.046 kg/m3

O=C[C@H](O)[C@@H](O)[C@H](O)CO [D-xylose] + O
mass density (288.15 K, m1 = 0.05973): 1002.39 ± 1.2 kg/m3
mass density (288.15 K, m1 = 0.06763): 1002.82 ± 1.2 kg/m3
mass density (288.15 K, m1 = 0.09347): 1004.22 ± 1.2 kg/m3
mass density (288.15 K, m1 = 0.1376): 1006.58 ± 1.2 kg/m3
mass density (288.15 K, m1 = 0.1501): 1007.24 ± 1.2 kg/m3
mass density (288.15 K, m1 = 0.1698): 1008.28 ± 1.2 kg/m3
mass density (288.15 K, m1 = 0.1873): 1009.21 ± 1.2 kg/m3
mass density (298.15 K, m1 = 0.05973): 1000.28 ± 1.2 kg/m3
mass density (298.15 K, m1 = 0.06763): 1000.71 ± 1.2 kg/m3
mass density (298.15 K, m1 = 0.09347): 1002.09 ± 1.2 kg/m3
mass density (298.15 K, m1 = 0.1376): 1004.43 ± 1.2 kg/m3
mass density (298.15 K, m1 = 0.1501): 1005.09 ± 1.2 kg/m3
mass density (298.15 K, m1 = 0.1698): 1006.12 ± 1.2 kg/m3
mass density (298.15 K, m1 = 0.1873): 1007.03 ± 1.2 kg/m3
mass density (308.15 K, m1 = 0.05973): 997.274 ± 1.2 kg/m3
mass density (308.15 K, m1 = 0.06763): 997.695 ± 1.2 kg/m3
mass density (308.15 K, m1 = 0.09347): 999.067 ± 1.2 kg/m3
mass density (308.15 K, m1 = 0.1376): 1001.39 ± 1.2 kg/m3
mass density (308.15 K, m1 = 0.1501): 1002.04 ± 1.2 kg/m3
mass density (308.15 K, m1 = 0.1698): 1003.07 ± 1.2 kg/m3
mass density (308.15 K, m1 = 0.1873): 1003.97 ± 1.2 kg/m3
mass density (318.15 K, m1 = 0.05973): 993.436 ± 1.2 kg/m3
mass density (318.15 K, m1 = 0.06763): 993.851 ± 1.2 kg/m3
mass density (318.15 K, m1 = 0.09347): 995.213 ± 1.2 kg/m3
mass density (318.15 K, m1 = 0.1376): 997.518 ± 1.2 kg/m3
mass density (318.15 K, m1 = 0.1501): 998.164 ± 1.2 kg/m3
mass density (318.15 K, m1 = 0.1698): 999.183 ± 1.2 kg/m3
mass density (318.15 K, m1 = 0.1873): 1000.08 ± 1.2 kg/m3

C[NH+]1CCCC1=O.O=C[O-] [N-methyl-2-oxopyrrolidinium formate] + O
mass density (288.15 K, m1 = 0.1): 1000.87 ± 0.041 kg/m3
mass density (288.15 K, m1 = 0.15): 1001.64 ± 0.043 kg/m3
mass density (288.15 K, m1 = 0.2): 1002.42 ± 0.044 kg/m3
mass density (288.15 K, m1 = 0.25): 1003.19 ± 0.046 kg/m3
mass density (298.15 K, m1 = 0.1): 998.697 ± 0.042 kg/m3
mass density (298.15 K, m1 = 0.15): 999.401 ± 0.043 kg/m3
mass density (298.15 K, m1 = 0.2): 1000.1 ± 0.044 kg/m3
mass density (298.15 K, m1 = 0.25): 1000.81 ± 0.045 kg/m3
mass density (308.15 K, m1 = 0.1): 995.571 ± 0.043 kg/m3
mass density (308.15 K, m1 = 0.15): 996.217 ± 0.044 kg/m3
mass density (308.15 K, m1 = 0.2): 996.862 ± 0.045 kg/m3
mass density (308.15 K, m1 = 0.25): 997.508 ± 0.046 kg/m3
mass density (318.15 K, m1 = 0.1): 991.633 ± 0.045 kg/m3
mass density (318.15 K, m1 = 0.15): 992.225 ± 0.046 kg/m3
mass density (318.15 K, m1 = 0.2): 992.816 ± 0.047 kg/m3
mass density (318.15 K, m1 = 0.25): 993.408 ± 0.048 kg/m3

CCC(=O)[O-].C[NH+]1CCCC1=O [N-methyl-2-oxopyrrolidinium propionate] + O
mass density (288.15 K, m1 = 0.1): 1000.28 ± 0.042 kg/m3
mass density (288.15 K, m1 = 0.15): 1000.81 ± 0.043 kg/m3
mass density (288.15 K, m1 = 0.2): 1001.35 ± 0.045 kg/m3
mass density (288.15 K, m1 = 0.25): 1001.89 ± 0.047 kg/m3
mass density (298.15 K, m1 = 0.1): 998.097 ± 0.042 kg/m3
mass density (298.15 K, m1 = 0.15): 998.566 ± 0.044 kg/m3
mass density (298.15 K, m1 = 0.2): 999.034 ± 0.045 kg/m3
mass density (298.15 K, m1 = 0.25): 999.503 ± 0.046 kg/m3
mass density (308.15 K, m1 = 0.1): 994.976 ± 0.044 kg/m3
mass density (308.15 K, m1 = 0.15): 995.384 ± 0.045 kg/m3
mass density (308.15 K, m1 = 0.2): 995.792 ± 0.046 kg/m3
mass density (308.15 K, m1 = 0.25): 996.2 ± 0.048 kg/m3
mass density (318.15 K, m1 = 0.1): 990.978 ± 0.045 kg/m3
mass density (318.15 K, m1 = 0.15): 991.337 ± 0.047 kg/m3
mass density (318.15 K, m1 = 0.2): 991.696 ± 0.048 kg/m3
mass density (318.15 K, m1 = 0.25): 992.055 ± 0.049 kg/m3

O [water] + O=C[C@H](O)[C@@H](O)[C@H](O)[C@H](O)CO
mass density (308.15 K, m2 = 0): 994.063 ± 0.042 kg/m3
